According to US20030138812A1, “Assessment of ecosystem health by evaluating multiple biomarkers in a nonhuman organism” (priority 2000, published 2003):
Read-outs that look alike come from different tables or passages of the source. Marks after values point to notes of the source that are not given here.

What was measured:
[1] = system: Ilyanassa obsoleta (mud snails); assay: Atrazine exposure: biomarker responses in mud snails; assay type: in vivo; details: 8-hour exposure
Description: Tanks were aerated with air stones. Snails were fed commercially available algal pellets. […]
(§1) Samples for each assay were analyzed in triplicate.
(§2) Sample was then subjected to another protein concentration assay.
(§3) All samples were analyzed in triplicate.

[2] = system: Palaeomonetes pugio (grass shrimp); assay: Atrazine stress: biomarker responses in grass shrimp; assay type: in vivo; details: for B-crystallin / Metallo. (metallothionein) / SOD (Mn SOD) / ubiquitin: 8-hour exposure
Description: (§4) During the seven-day acclimation, grass shrimp were subject to a […] photosynthetic-active-radiation 14 hour photoperiod at 22° C. […] Dissolved oxygen, ammonia content, and temperature were continually monitored throughout the seven-day chamber acclimation.
Atrazine stress—Grass shrimp were exposed to […], or 1 mg/L of an acetone stock of technical grade atrazine (99%).
(§5) Samples were vortexed for 30 seconds and then centrifuged at 10,000× g for 5 minutes. The supernatant was placed in a new tube for LPO and GSH analyses. Protein concentration of samples were assayed by the method of Ghosh et al. (1988), supra.
(§6) Samples were then boiled for 3 minutes, allowed to sit at 25° C. for 5 minutes, and then centrifuged at 10,000× g for 5 minutes. […] The sample was then subjected to another protein concentration assay.
(§7) Samples were analyzed for LPO and total GSH content following the manufacturer's instruction. Samples for each assay were analyzed in triplicate, and sample means provided independent unit of statistical analysis.
(§8) All samples were analyzed in triplicate. ELISPOT technique on nitrocellulose membrane was employed using a dot blot apparatus.

[3] = system: Palaeomonetes pugio (grass shrimp); assay: Cadmium stress: biomarker responses in grass shrimp; assay type: in vivo; details: for Cyt. P450 (cytochrome P450 2E1) / SOD (Mn SOD): 8-hour exposure
Description: as §4
Cadmium stress—Grass shrimp were subjected to an 8-hour exposure to 0 M, […], and […] cadmium chloride. The solvent carrier was water.
as §5, §6, §7, §8

[4] = system: Ilyanassa obsoleta (mud snails)
Description: To determine that the antibodies bound to their specific targets, preliminary experiments were conducted to ensure the validity of the antibody assays. Snails were exposed either to high temperature, cadmium, ethanol, or acetone, homogenized in an SDS/50 mM dithiothreitol buffered solution, subjected to SDS-PAGE, immunoblotted to PVDF membrane, and assayed with at least 3 different antibodies per cellular parameter. […] Purified protein of each cellular parameter was run beside control and treated samples.

[5] = system: Palaeomonetes pugio (grass shrimp); assay type: in vivo
Excerpt: Purified protein of each cellular parameter was run along side control and treated samples.

[6] = system: Ilyanassa obsoleta (mud snails); assay type: in vivo
Description: Tanks were aerated with air stones. Snails were fed commercially available algal pellets.
The solvent carrier was water.
No evidence of either was found.
as §1, §2, §3

[7] = system: Ilyanassa obsoleta (mud snails); assay: Endosulfan exposure: biomarker responses in mud snails; details: 8-hour exposure
[8] = control to high atrazine treatments, grass shrimp
[9] = high: 50 M cadmium chloride, 8-hour exposure
[10] = low: 5 M cadmium chloride, 8-hour exposure

CCNc1nc(Cl)nc(NC(C)C)n1 [Atrazine, atrazine]
B-crystallin ([1]; high: 1 mg/L atrazine): 25 ± 2.1 pg Hsp or B-crystallin/ g total protein
Cyt. P450 (cytochrome P450 2E1 homologue) ([1]; high: 1 mg/L atrazine): 17.8 ± 3.07 relative protein concentrations
GSH ([1]; high: 1 mg/L atrazine): 83 ± 3.1 mM GSH/ g total protein
Hsp22 ([1]; high: 1 mg/L atrazine): 6 ± 1.9 pg Hsp or B-crystallin/ g total protein
Hsp60 ([1]; high: 1 mg/L atrazine): 0.158 ± 0.0086 pg Hsp or B-crystallin/ g total protein
Hsp70 ([1]; high: 1 mg/L atrazine): 121.8 ± 6.08 pg Hsp or B-crystallin/ g total protein
LPO ([1]; high: 1 mg/L atrazine): 1.32 ± 0.037 mM LPO/mg total protein
Metallo (metallothionein) ([1]; high: 1 mg/L atrazine): 8.6 ± 1.72 ng metallothionein/mg total protein
Mn SOD ([1]; high: 1 mg/L atrazine): 7.8 ± 1.66 relative protein concentrations
ubiquitin ([1]; high: 1 mg/L atrazine): 41 ± 3.7 ng ubiquitin/ g total protein
B-crystallin ([1]; low: 1 g/L atrazine): 29 ± 1.3 pg Hsp or B-crystallin/ g total protein
Cyt. P450 (cytochrome P450 2E1 homologue) ([1]; low: 1 g/L atrazine): 18.0 ± 2.90 relative protein concentrations
GSH ([1]; low: 1 g/L atrazine): 85 ± 3.6 mM GSH/ g total protein
Hsp22 ([1]; low: 1 g/L atrazine): 6 ± 2.0 pg Hsp or B-crystallin/ g total protein
Hsp70 ([1]; low: 1 g/L atrazine): 123.4 ± 7.05 pg Hsp or B-crystallin/ g total protein
LPO ([1]; low: 1 g/L atrazine): 1.16 ± 0.040 mM LPO/mg total protein
Metallo (metallothionein) ([1]; low: 1 g/L atrazine): 18.2 ± 2.06 ng metallothionein/mg total protein
Mn SOD ([1]; low: 1 g/L atrazine): 9.0 ± 1.76 relative protein concentrations
ubiquitin ([1]; low: 1 g/L atrazine): 42 ± 3.9 ng ubiquitin/ g total protein
Levels of LPO decreased [2, 8]: 38%
levels of Hsp60 increased [2, 8]: nearly five-fold
B-crystallin ([2]; high: 1 mg/L atrazine): 190 ± 27 ng Hsp or B-crystallin/ g total protein
Metallo. (metallothionein) ([2]; high: 1 mg/L atrazine): 1.7 ± 0.35 ng metallothionein/mg total protein
SOD (Mn SOD) ([2]; high: 1 mg/L atrazine): 7.9 ± 1.86 g SOD/ mg total protein
B-crystallin ([2]; low: 1 g/L atrazine): 290 ± 27 ng Hsp or B-crystallin/ g total protein
Metallo. (metallothionein) ([2]; low: 1 g/L atrazine): 1.4 ± 0.17 ng metallothionein/mg total protein
SOD (Mn SOD) ([2]; low: 1 g/L atrazine): 4.3 ± 0.23 g SOD/ mg total protein
ubiquitin ([2]; low: 1 g/L atrazine): 1.44 ± 0.068 nanog ubiquitin/ g total protein
B-crystallin ([2]; medium: 500 g/L atrazine): 250 ± 45 ng Hsp or B-crystallin/ g total protein
Metallo. (metallothionein) ([2]; medium: 500 g/L atrazine): 1.8 ± 0.45 ng metallothionein/mg total protein
SOD (Mn SOD) ([2]; medium: 500 g/L atrazine): 4.6 ± 1.61 g SOD/ mg total protein
ubiquitin ([2]; medium: 500 g/L atrazine): 1.38 ± 0.066 nanog ubiquitin/ g total protein

[Cl][Cd][Cl] [Cadmium Chloride, cadmium chloride]
Metallothionine increase in mean levels compared to the control ([3]; high CdCl2 concentrations, grass shrimp): more than a six-fold increase
Cyt. P450 (cytochrome P450 2E1) ([3]; high: 50 uM cadmium chloride): 12.9 ± 1.26 relative protein concentrations
SOD (Mn SOD) ([3]; high: 50 uM cadmium chloride): 4.0 ± 0.16 g SOD/ mg total protein
Cyt. P450 (cytochrome P450 2E1) ([3]; low: 1 uM cadmium chloride): 14.5 ± 1.19 relative protein concentrations
SOD (Mn SOD) ([3]; low: 1 uM cadmium chloride): 3.3 ± 0.12 g SOD/ mg total protein
Cyt. P450 (cytochrome P450 2E1) ([3]; medium: 5 uM cadmium chloride): 13.4 ± 1.48 relative protein concentrations
SOD (Mn SOD) ([3]; medium: 5 uM cadmium chloride): 4.3 ± 0.80 g SOD/ mg total protein
induction of protein detected by Cytochrome P450 2E1 antibody (ca. 50 kDa) ([4]; immunoblot): did not elicit significant accumulation
induction of protein detected by Mn SOD antibody (about 26 kDa) ([4]; immunoblot): inducible by both heat stress and cadmium
induction of protein detected by Mn SOD antibody (about 23 kDa) ([5]; immunoblot): inducible by both heat stress and cadmium
induction of proteins detected by Cytochrome P450 2E1 antibody (ca. 53 kDa) ([5]; immunoblot): did not elicit significant accumulation
induction of proteins detected by metallothionein antibody (ca. 7 k to 12 kDa) ([5]; immunoblot): cadmium-inducible
Metallothionine increase in mean levels compared to the control ([6]; high CdCl2 concentrations, mud snails): more than a six-fold increase
Cyt. P450 (cytochrome P450 2E1 homologue) [6, 9]: 27.4 ± 3.14 relative protein concentrations
LPO [6, 9]: 1.16 ± 0.093 mM LPO/mg total protein
Cyt. P450 (cytochrome P450 2E1 homologue) [6, 10]: 28.6 ± 3.11 relative protein concentrations
Hsp60 [6, 10]: 0.419^b ± pg Hsp or B-crystallin/ g total protein
LPO [6, 10]: 1.1 mM LPO/mg total protein

O=S1OCC2C(CO1)C1(Cl)C(Cl)=C(Cl)C2(Cl)C1(Cl)Cl (stereo not shown) [Endosulfan, endosulfan]
B-crystallin ([7]; high: 1 g/L endosulfan): 13 ± 2.7 pg Hsp or B-crystallin/ g total protein
Hsp26 ([7]; high: 1 g/L endosulfan): 23 ± 3.3 pg Hsp or B-crystallin/ g total protein
Metallo. (metallothionein) ([7]; high: 1 g/L endosulfan): 14 ± 3.11 ng metallothionein/mg total protein
B-crystallin ([7]; low: 50 ng/L endosulfan): 12 ± 3.1 pg Hsp or B-crystallin/ g total protein
Hsp26 ([7]; low: 50 ng/L endosulfan): 20 ± 12.673 pg Hsp or B-crystallin/ g total protein
Metallo. (metallothionein) ([7]; low: 50 ng/L endosulfan): 19.4 ± 1.99 ng metallothionein/mg total protein
B-crystallin ([7]; medium: 500 ng/L endosulfan): 11 ± 3.9 pg Hsp or B-crystallin/ g total protein
Hsp26 ([7]; medium: 500 ng/L endosulfan): 19 ± 5.9 pg Hsp or B-crystallin/ g total protein
Metallo. (metallothionein) ([7]; medium: 500 ng/L endosulfan): 22.2 ± 3.15 ng metallothionein/mg total protein

CC(C)=O [acetone]
induction of Hsp70 homologues ([4]; immunoblot): inducible by all treatments except ethanol and acetone
induction of protein detected by Mn SOD antibody (about 26 kDa) ([4]; immunoblot): not by exposure to acetone
induction of protein detected by Cytochrome P450 2E1 antibody (ca. 50 kDa) ([4]; in vivo): ethanol- and acetone-inducible
induction of Hsp70 homologues ([5]; immunoblot): inducible by all treatments except ethanol and acetone
induction of protein detected by Mn SOD antibody (about 23 kDa) ([5]; immunoblot): not by exposure to ethanol or acetone
induction of proteins detected by Cytochrome P450 2E1 antibody (ca. 53 kDa) ([5]; in vivo): ethanol- and acetone-inducible

CCO [ethanol]
induction of Hsp70 homologues ([4]; in vivo): inducible by all treatments except ethanol and acetone
induction of protein detected by Cytochrome P450 2E1 antibody (ca. 50 kDa) ([4]; in vivo): ethanol- and acetone-inducible
induction of Hsp70 homologues ([5]; in vivo): inducible by all treatments except ethanol and acetone
induction of protein detected by Mn SOD antibody (about 23 kDa) ([5]; in vivo): not by exposure to ethanol or acetone
induction of proteins detected by Cytochrome P450 2E1 antibody (ca. 53 kDa) ([5]; in vivo): ethanol- and acetone-inducible
